Assay results from patent publication US6235707A, “Anticoagulant peptidyl-arginine aldehyde derivatives” (Gyogyszerkutato Intezet Kft., priority 1996, dated 2001).
Like-named read-outs stand apart in the source and are kept apart here. Square brackets hold non-standard residues; d marks the D form. Peptide text beside a SMILES is read from it. * marks the point of attachment. dCba = N[C@H](CC1CCC1)C(=O)O; Moc = COC(=O)*

Key:
citrate plasma [1] = experiment: prothrombin time (PT) plasma clotting test; format: biochemical
Protocol: (§1) Anticoagulant activity (i.e. inhibition of the proteolytic reactions in the process) is measured by anticoagulant tests, e.g. in the thrombin time (TT), activated partial thromboplastin time (APTT) and prothrombin time (PT) tests [E. J. W. Bovie et al., Mayo Clinic Laboratory Manual of Haemostasis; W. B. Saunders Co., Philadelphia (1971)]. Plasma, inhibited in spontaneous coagulation, e.g. citrate-plasma, is made to coagulate and the required coagulation time is measured. Upon the action of anticoagulants the coagulation time is prolonged proportionally to the inhibition of the reaction(s) in the process. The anticoagulant effect can be characterised by the substance concentration required to prolong the coagulation time twofold compared to the control (IC50). The effect of anticoagulants on individual coagulant proteases is measured by the amidolytic method [R. Lottenberg et al., Methods in Enzymol. 80, 341 (1981); G. Cleason, Blood Coagulation and Fibrinolysis 5, 411 (1994)]. The isolated active factor (e.g. thrombin, fXa) and its chromogen or fluorogen peptide-amide substrate are reacted in the presence or absence of the inhibitor, resp. The enzyme inhibiting action is characterised by the inhibitory constant (IC50) measured during amidolysis.
(§2) In the TT test coagulation is initiated by the thrombin added to the citrate plasma. In the system 22 pmol/ml of thrombin is functioning and its inhibition can be measured on the fibrinogen (one of the natural substrates of thrombin) in the presence of plasma components. In the APTT and PT tests the full coagulation process takes place. Depending on the activator fX is activated either by the extrinsic or the intrinsic pathway. The generated fXa activates prothrombin to thrombin which, in turn, triggers plasma coagulation. The coagulation time is prolonged if the enzymes or one of them is inhibited by the inhibitor. In the APTT and PT tests at most 40 pmol/ml Xa can be generated (this is the full amount of factor X present in both systems) while 150 pmol/ml (APTT) and 350 pmol/ml (PT) of thrombin are generated [B. Kaiser et al., Thromb. Res. 65, 157 (1992)].
(§3) The in vitro anticoagulant effects of the compounds of general formula (I) was measured by the prothrombin time (PT), activated partial thromboplastin time (APTT) and thrombin time (TT) tests [D. Bagdy et al., Thromb. Haemost. 67, 325 (1992)]. The fxa-inhibiting effect of the compounds was also determined using the Bz-Ile-Glu-Gly-Arg-pNA chromogen substrate (see method M6).

thrombin = thrombin (Homo sapiens, UniProt P00734); experiment: thrombin time (TT) plasma clotting test; format: biochemical
Protocol: as §1, §2, §3

isolated human fXa = target: T1, isolated human fXa (Homo sapiens, UniProt P00742); experiment: fXa inhibition in solution, amidolytic method on Bz-Ile-Glu-Gly-Arg-pNA chromogen substrate (Method M6); format: biochemical; conditions: for IC50: isolated human fXa, Bz-Ile-Glu-Gly-Arg-pNA
T1 construct: The isolated active factor (e.g. thrombin, fXa) and its chromogen or fluorogen peptide-amide substrate are reacted; purchased SIGMA
Protocol: as §1, §3
Determination of Factor Xa Inhibition in Solution on a 96-well Microtitre Plate
a) By means of phosphate buffer (0.1M sodium phosphate and 0.05M sodium chloride, pH=7.4) 1.3 E/ml solution is prepared from human factor Xa (SIGMA), and 0.1-1.0-10 and 100 μg/ml solutions from the peptide inhibitors. The Bz-Ile-Glu-Gly-Arg-pNA substrate is used in distilled water solution ([…]).
b) From the control and the peptide inhibitor solutions (3 parallel samples of each concentration) 30-30 μl aliquots are placed into the wells. 30 μl of factor Xa, 90 μl of buffer and 150 μl of substrate are added to the peptide solution and the extinction is determined after 10 min. at 405 nm. Thereafter the steps are the same as in M2/c.

citrate plasma [2] = experiment: activated partial thromboplastin time (APTT) plasma clotting test; format: biochemical
Protocol: as §1, §2, §3

[3] = target: tissue plasminogen activator (tPA) (Homo sapiens, UniProt P00750); experiment: fibrin-plate method, plasmin formation induced by tPA; format: biochemical; conditions: for IC50: fibrin plate, hydrolysed area reduced to 50% of control; for B: relative efficiency, tPA: related to the activity of C1 (1/IC50 = 1)
Source text: (§4) The inhibitory effect of the new compounds of the invention on plasmin (PL) as well as on plasmin formation induced by tissue plasminogen activator (tPA) and urokinase (UK) was examined by the fibrin-plate method [D. Bagdy et al.: Thromb. Haemost. 67, 325 (1992)]. Compounds C1 and C5 served as controls. […] V. Jackson et al.: J. Cardiovasc. Pharmacol. 21, 587 (1993))]. In Table 4 the results obtained with the new compounds 1 and 2 as well as those with controls C1 and C5 are presented as an example.

urokinase (UK) = urokinase (UK) (Homo sapiens, UniProt P00749); experiment: fibrin-plate method, plasmin formation induced by urokinase; format: biochemical; conditions: for IC50: fibrin plate, hydrolysed area reduced to 50% of control; for B: relative efficiency, UK: related to the activity of C1 (1/IC50 = 1)
Source text: as §4

[4] = target: T2, fibrin gel-bound thrombin (Homo sapiens, UniProt P00734); experiment: inhibition of fibrin gel-bound thrombin (Methods M4, M5); format: biochemical; conditions: human fibrinogen clotted with human thrombin; Tos-Gly-Pro-Arg-pNA substrate
T2 construct: purchased SIGMA
Protocol: (§5) Plasma-clot was obtained by recalcificating platelet-rich human plasma, and fibrin gel by clotting human fibrinogen with human thrombin. For the activity measures of fXa and thrombin Z-D-Arg-Gly-Arg-pNA or Tos-Gly-Pro-Arg-pNA substrates were used in agreement with Methods M1-M3.
Preparation of Fibrin Clots
a) To each reaction vessel 200 μl of human fibrinogen (SIGMA), 25 μl of 25 NIH/E/ml human thrombin (SIGMA) and 40 μl of 100 mM CaCl2 solution is placed and the mixtures are allowed to stand for 1 hour at 20-22° C. The fibrin clots are washed with isotonic NaCl-solution (3×2 ml) under gentle stirring to remove traces of thrombin and sedimented for 5 min. The effectiveness of the washing can be checked by the method M1/c.
Determination of Inhibition of Fibrin-clot Bound Thrombin
a) 0.1-1.0-10 and 100 μg/ml solutions are made from the peptide inhibitors with Hepes/NaCl buffer (0.001 M Hepes and 0.1 M NaCl, pH=7.4).
b) Measurements are continued according to M3/b.

plasmin (PL) = plasmin (PL) (Homo sapiens, UniProt P00747); experiment: fibrin-plate method, plasmin; format: biochemical; conditions: for IC50: fibrin plate, hydrolysed area reduced to 50% of control; for B: relative efficiency, PL: related to the activity of C1 (1/IC50 = 1)
Source text: as §4

clot-bound thrombin = target: T3, clot-bound thrombin (Homo sapiens, UniProt P00734); experiment: inhibition of plasma clot-bound thrombin (Methods M1, M3); format: biochemical; conditions: clot from platelet-rich human plasma; Tos-Gly-Pro-Arg-pNA substrate
T3 construct: from tissue; host or cells: clot of recalcified human platelet-rich plasma
Protocol: as §5
Preparation of Clots from Human Plasma
a) Platelet-rich plasma is prepared by centrifuging a 9:1 mixture of human blood and 3.8% sodium citrate solution for 5 min. at 240×g.
b) 200 μl platelet-rich plasma and 80 μl 40 mM CaCl2 solution are allowed to stand at room temperature for 1 hour. The thus-formed clot is washed with 6×2 ml of 0.9% NaCl solution with gentle stirring to remove the residual enzymes (thrombin and factor Xa). The washing medium is assayed for thrombin-like activity as follows:
c) To 400 μl of washing medium 100 μl of 1 mM Tos-Gly-Pro-Arg-pNA substrate solution is added, the mixture is incubated for 30 min at 37° C., then the reaction is stopped with 100 μl of 50% acetic acid. From this mixture 150 μl aliquots are applied onto a 96-well microtitre plate and the extinction coefficients are measured at 405 nm (ELISA READER SLT Laborinstrument GmbH, Austria). In case of efficient washing the extinction coefficient is smaller than 5% of that of the control.
Determination of the Inhibition of Clot-bound Thrombin
a) Solutions are made from the peptide inhibitors according to Method M2/a.
b) After draining off the washing medium the clots (Method M1) are mixed with 400 μl of peptide solution (3 parallel samples with each concentration), then the samples are incubated for 5 min. at 37° C. together with a separate 400 μl buffer serving as control. Then 100 μl […] 1 mM Tos-Gly-Pro-Arg-pNA substrate solution is added and the incubation continued for further 30 min. at 37° C. The experiment is continued according to M2/c.

[5] = C. V. Jackson et al. 1993; cited from earlier work
[6] = Table 2, concentration prolonging clotting time twofold, read-out: A: anticoagulation IC50, PT
[7] = Table 2, concentration prolonging clotting time twofold, read-out: A: anticoagulation IC50, TT
[8] = Table 2, read-out: B: fXa inhibiting effect IC50
[9] = Table 2, concentration prolonging clotting time twofold, read-out: A: anticoagulation IC50, APTT
[10] = Table 3, twofold prolongation compared to control, read-out: A: anticoagulant IC50, PT
[11] = Table 3, twofold prolongation compared to control, read-out: A: anticoagulant IC50, TT
[12] = Table 3, read-out: B: fXa inhibiting IC50
[13] = Table 3, twofold prolongation compared to control, read-out: A: anticoagulant IC50, APTT

T1 sequence (P00742 235-488 limits assumed): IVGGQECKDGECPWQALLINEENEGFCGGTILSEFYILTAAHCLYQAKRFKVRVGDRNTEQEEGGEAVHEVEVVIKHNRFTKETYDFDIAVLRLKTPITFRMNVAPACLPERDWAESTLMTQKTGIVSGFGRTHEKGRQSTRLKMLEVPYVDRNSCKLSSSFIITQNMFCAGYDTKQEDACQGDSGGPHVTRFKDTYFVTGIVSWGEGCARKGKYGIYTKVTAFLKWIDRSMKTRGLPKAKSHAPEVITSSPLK
T1 sequence (P00742 41-179 partner limits assumed): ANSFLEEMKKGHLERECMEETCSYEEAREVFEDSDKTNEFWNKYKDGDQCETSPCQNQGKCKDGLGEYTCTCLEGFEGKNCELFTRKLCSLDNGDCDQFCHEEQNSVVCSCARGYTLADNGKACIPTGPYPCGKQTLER
tissue plasminogen activator (tPA), sequence (P00750 36-562, species assumed): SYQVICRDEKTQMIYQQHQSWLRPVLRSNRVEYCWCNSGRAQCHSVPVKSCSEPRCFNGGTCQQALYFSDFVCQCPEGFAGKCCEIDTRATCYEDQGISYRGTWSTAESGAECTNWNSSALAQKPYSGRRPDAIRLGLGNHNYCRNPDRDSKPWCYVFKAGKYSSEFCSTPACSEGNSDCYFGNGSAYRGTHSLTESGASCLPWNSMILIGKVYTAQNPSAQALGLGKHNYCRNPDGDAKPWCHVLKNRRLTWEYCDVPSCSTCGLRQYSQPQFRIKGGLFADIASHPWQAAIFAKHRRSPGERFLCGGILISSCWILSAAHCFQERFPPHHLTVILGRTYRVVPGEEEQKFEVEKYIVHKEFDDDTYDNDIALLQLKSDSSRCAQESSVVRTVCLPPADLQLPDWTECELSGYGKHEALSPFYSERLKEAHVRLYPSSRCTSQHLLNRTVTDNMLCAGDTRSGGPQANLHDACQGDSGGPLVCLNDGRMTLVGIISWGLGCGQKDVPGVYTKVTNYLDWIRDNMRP
plasmin (PL), sequence (P00747 581-810 limits assumed, species assumed): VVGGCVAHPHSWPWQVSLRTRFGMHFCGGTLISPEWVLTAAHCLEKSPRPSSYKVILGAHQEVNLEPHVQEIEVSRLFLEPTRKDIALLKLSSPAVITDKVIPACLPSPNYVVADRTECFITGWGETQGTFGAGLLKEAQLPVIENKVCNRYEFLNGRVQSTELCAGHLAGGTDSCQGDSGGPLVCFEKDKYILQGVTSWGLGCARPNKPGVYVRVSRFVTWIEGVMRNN
plasmin (PL), sequence (P00747 97-580 partner limits assumed, species assumed): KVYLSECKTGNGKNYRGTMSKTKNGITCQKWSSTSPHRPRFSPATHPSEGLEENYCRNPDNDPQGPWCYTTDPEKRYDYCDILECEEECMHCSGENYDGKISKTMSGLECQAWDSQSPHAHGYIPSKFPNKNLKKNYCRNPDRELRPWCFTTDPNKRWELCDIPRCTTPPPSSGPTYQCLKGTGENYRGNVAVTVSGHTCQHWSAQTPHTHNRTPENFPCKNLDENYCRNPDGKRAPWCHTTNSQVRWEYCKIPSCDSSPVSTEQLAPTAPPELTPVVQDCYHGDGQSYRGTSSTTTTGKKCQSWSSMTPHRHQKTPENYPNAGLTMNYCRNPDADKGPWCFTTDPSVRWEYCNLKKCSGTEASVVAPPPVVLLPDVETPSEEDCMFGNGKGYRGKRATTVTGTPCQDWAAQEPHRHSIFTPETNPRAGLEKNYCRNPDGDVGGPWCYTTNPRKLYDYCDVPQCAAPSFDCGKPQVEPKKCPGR

Compound | IC50 (citrate plasma [1]; [10]) [nM] | IC50 (thrombin; [11]) [nM] | IC50 (isolated human fXa; [12]) [nM] | IC50 (citrate plasma [2]; [13]) [nM] | B: relative efficiency, tPA [3] | B: relative efficiency, UK (urokinase (UK)) | B: relative efficiency, PL (plasmin (PL)) | further results
COC(=O)N[C@H](Cc1ccccc1)C(=O)N1CCC[C@H]1C(=O)N[C@H](C=O)CCCNC(=N)N [Example C7, Methoxycarbonyl-3-phenyl-D-alanyl-L-prolyl-L-arginine aldehyde] |  |  |  |  |  |  |  | IC50 (citrate plasma [1]; [6]): 1960 nM; IC50 (thrombin; [7]): 200 nM; IC50 (isolated human fXa; [8]): 130 nM; IC50 (citrate plasma [2]; [9]): 290 nM
CCOC(=O)N[C@H](CC1CCCC1)C(=O)N1CCC[C@H]1C(=O)N[C@H](C=O)CCCNC(=N)N [Example 4, Ethoxycarbonyl-3-cyclopentyl-D-alanyl-L-prolyl-L-arginine aldehyde] | 1410 | 100 | 27 | 240 | 3.5 | 1.8 | 0.55 | IC50 [3]: 38000 nM; IC50 (urokinase (UK)): 46000 nM; IC50 [4]: 670 nM; IC50 (plasmin (PL)): 98000 nM; IC50 (clot-bound thrombin): 490 nM
COC(=O)N[C@H](CC1CCC1)C(=O)N1CCC[C@H]1C(=O)N[C@H](C=O)CCCNC(=N)N [Example 2, methoxycarbonyl-3-cyclobutyl-D-alanyl-L-prolyl-L-arginine aldehyde] (Moc-[dCba]-Pro-Arg-aldehyde) | 1120 | 110 | 388 | 250 | 1.4 | 0.5 | 0.23 | IC50 [3]: 92000 nM; activity against tPA, times lower than that of compound C5 ([3]; text b147, second of three enzymes): 4.5 times; IC50 (urokinase (UK)): 153000 nM; activity against UK, times lower than that of compound C5 (urokinase (UK); text b147, third of three enzymes): 39 times; IC50 [4]: 640 nM; IC50 (plasmin (PL)): 235000 nM; activity against PL, times lower than that of compound C5 (plasmin (PL); text b147, first of three enzymes): 3.2 times; IC50 (clot-bound thrombin): 680 nM
CCOC(=O)NC(C(=O)N1CCC[C@H]1C(=O)N[C@H](C=O)CCCNC(=N)N)C1CCC1 (mixture of isomers) [Example C10, Ethoxycarbonyl-DL-cyclobutyl-glycyl-L-prolyl-L-arginine aldehyde] | 6150 | 880 | 82 | 770 |  |  |  | 
CC(C)(C)OC(=O)N[C@H](Cc1ccccc1)C(=O)N1CCC[C@H]1C(=O)N[C@H](C=O)CCCNC(=N)N [Example C5, BOC-D-Phe-Pro-Arg-H] |  |  |  |  | 22.0 | 27.3 | 4.5 | IC50 (citrate plasma [1]; [6]): 2270 nM; antifibrinolytic effect in vivo [5]: well detectable; IC50 (thrombin; [7]): 200 nM; IC50 (isolated human fXa; [8]): 910 nM; fXa IC50, times lower than C1 (isolated human fXa; text b89): 10 times; IC50 (citrate plasma [2]; [9]): 760 nM

Continued, in another order:

IC50 (citrate plasma [1]; [10]) [nM] | IC50 (thrombin; [11]) [nM] | IC50 (isolated human fXa; [12]) [nM] | IC50 (citrate plasma [2]; [13]) [nM] | B: relative efficiency, tPA [3] | B: relative efficiency, UK (urokinase (UK)) | B: relative efficiency, PL (plasmin (PL)) | Compound | further results
1910 | 130 | 917 | 380 |  |  |  | CCOC(=O)N[C@H](Cc1ccccc1)C(=O)N1CCC[C@H]1C(=O)N[C@H](C=O)CCCNC(=N)N [Example C6, Ethoxycarbonyl-3-phenyl-D-alanyl-L-prolyl-L-arginine aldehyde] | 
1490 | 130 | 68 | 500 |  |  |  | CCOC(=O)NC(CC1CCC1)C(=O)N1CCC[C@H]1C(=O)N[C@H](C=O)CCCNC(=N)N (mixture of isomers) [Example C8, Ethoxycarbonyl-3-cyclobutyl-DL-alanyl-L-prolyl-L-arginine aldehyde] | 
1900 | 260 | 43 | 480 |  |  |  | CCOC(=O)NC(CC1CCCC1)C(=O)N1CCC[C@H]1C(=O)N[C@H](C=O)CCCNC(=N)N (mixture of isomers) [Example C9, Ethoxycarbonyl-3-cyclopentyl-DL-alanyl-L-prolyl-L-arginine aldehyde] | 
